Results from patent publication US11053218B2, “3-(1-oxoisoindolin-2-yl)piperidine-2,6-dione derivatives and uses thereof” (Novartis AG, priority 2017, dated 2021).
Read-outs that look alike come from different tables or passages of the source.

What was measured:
Assay type in all cases: cell-based
[1] = target: IKZF2 (Homo sapiens, UniProt Q96SW2+Q9UKS7); assay: Prolabel quantification of IKZF2 protein levels in 293GT cells
[2] = target: IKZF1 (Homo sapiens, UniProt Q13422+Q96SW2); assay: Prolabel quantification of IKZF1 protein levels in 293GT cells; conditions: Prolabel assay, read-out: IKZF1 EC50
Sequence of IKZF1 (Q13422 whole entry): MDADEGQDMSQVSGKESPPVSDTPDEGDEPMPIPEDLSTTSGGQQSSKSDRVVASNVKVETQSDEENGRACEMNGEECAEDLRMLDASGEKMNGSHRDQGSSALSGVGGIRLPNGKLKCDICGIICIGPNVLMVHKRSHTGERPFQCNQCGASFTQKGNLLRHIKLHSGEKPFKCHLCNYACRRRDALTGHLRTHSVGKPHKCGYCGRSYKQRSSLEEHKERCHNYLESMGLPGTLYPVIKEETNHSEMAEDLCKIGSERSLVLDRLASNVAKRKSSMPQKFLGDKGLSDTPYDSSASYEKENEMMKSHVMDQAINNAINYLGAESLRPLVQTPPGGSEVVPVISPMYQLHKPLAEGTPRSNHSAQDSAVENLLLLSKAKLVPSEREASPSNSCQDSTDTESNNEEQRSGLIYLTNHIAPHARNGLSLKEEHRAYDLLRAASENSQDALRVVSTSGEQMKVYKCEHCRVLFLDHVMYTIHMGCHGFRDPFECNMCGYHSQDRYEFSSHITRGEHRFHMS
Sequence of IKZF1 (Q96SW2 whole entry): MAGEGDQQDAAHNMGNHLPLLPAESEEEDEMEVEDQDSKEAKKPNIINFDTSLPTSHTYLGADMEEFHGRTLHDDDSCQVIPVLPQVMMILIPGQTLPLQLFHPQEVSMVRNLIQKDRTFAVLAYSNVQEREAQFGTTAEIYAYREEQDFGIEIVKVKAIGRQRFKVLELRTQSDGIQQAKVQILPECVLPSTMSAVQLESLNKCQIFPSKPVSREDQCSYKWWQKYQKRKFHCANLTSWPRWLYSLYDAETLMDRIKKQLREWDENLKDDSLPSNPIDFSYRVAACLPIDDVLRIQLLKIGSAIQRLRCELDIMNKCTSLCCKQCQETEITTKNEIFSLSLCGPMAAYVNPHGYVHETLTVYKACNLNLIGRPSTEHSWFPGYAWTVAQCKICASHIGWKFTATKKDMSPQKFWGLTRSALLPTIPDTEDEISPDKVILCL
Sequence of IKZF1 (Q16531 whole entry partner): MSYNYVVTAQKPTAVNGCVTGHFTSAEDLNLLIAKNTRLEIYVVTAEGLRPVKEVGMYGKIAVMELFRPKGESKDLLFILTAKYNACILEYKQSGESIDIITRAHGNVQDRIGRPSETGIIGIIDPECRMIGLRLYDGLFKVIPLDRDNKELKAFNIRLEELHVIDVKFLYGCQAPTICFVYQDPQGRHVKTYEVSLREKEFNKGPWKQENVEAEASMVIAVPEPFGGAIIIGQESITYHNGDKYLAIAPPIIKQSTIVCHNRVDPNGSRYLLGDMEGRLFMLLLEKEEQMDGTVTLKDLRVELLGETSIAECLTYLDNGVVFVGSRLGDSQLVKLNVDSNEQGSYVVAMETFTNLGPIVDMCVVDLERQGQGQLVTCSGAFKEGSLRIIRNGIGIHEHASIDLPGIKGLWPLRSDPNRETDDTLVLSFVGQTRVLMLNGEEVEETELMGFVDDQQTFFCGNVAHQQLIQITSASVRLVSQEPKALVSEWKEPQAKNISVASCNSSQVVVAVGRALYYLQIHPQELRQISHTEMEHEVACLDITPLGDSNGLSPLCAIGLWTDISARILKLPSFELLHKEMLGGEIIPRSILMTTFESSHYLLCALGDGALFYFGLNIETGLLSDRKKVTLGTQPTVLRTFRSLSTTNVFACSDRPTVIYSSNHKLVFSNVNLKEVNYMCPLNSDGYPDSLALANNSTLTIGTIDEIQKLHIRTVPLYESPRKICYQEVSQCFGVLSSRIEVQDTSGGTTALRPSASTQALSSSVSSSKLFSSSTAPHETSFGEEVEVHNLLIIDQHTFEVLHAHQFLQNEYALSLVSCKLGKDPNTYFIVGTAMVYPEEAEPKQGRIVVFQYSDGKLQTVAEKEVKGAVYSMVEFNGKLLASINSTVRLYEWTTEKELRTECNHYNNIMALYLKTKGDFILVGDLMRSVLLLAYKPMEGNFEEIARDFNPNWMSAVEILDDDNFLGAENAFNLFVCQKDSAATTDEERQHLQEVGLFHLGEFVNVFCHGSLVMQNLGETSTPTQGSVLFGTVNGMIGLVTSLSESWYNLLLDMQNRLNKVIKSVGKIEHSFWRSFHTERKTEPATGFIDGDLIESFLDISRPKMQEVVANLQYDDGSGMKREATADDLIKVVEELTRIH

[3] = target: GSPT1 (Homo sapiens, UniProt P15170+Q96SW2); assay: Prolabel quantification of GSPT1 protein levels in 293GT cells; conditions: Prolabel assay, read-out: GSPT1 EC50
Sequence of GSPT1 (P15170 whole entry, the tested form may be a part): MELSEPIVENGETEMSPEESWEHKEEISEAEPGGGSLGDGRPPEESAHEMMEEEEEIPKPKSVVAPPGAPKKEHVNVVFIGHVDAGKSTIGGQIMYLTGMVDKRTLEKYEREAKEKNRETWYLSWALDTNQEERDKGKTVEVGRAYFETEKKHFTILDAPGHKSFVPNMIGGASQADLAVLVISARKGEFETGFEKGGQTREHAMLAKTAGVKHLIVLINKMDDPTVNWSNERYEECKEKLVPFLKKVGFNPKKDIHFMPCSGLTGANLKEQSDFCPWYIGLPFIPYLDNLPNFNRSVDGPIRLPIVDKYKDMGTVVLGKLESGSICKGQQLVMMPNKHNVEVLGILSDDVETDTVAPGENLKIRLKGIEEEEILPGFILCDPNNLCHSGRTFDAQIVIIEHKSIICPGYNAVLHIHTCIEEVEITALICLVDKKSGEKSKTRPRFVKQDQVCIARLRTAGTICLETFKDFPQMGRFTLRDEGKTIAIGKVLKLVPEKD
Sequence of GSPT1 (Q96SW2 whole entry, the tested form may be a part): as the sequence (Q96SW2 whole entry) above
Sequence of GSPT1 (Q16531 whole entry partner, the tested form may be a part): as the sequence (Q16531 whole entry partner) above
Procedure: The Prolabel system from DiscoverX was used to develop high-throughput and quantitative assays to measure changes in IKZF1, IKZF2 and GSPT1 protein levels in response to compounds. The prolabel tag was derived from the alpha fragment of beta galactosidase and has the following protein sequence: mssnslavvlqrrdwenpgvtqlnrlaahppfaswrnseeartdrpsqqlrslnge. The complementary fragment of beta-galactosidase (from DiscoverX), is added to the prolabel tag to form an active beta galactosidase enzyme whose activity can be precisely measured. In this way, the levels of a fusion protein with the prolabel tag can be quantified in cell lysates.
Lentiviral vectors, based on the Invitrogen pLenti6.2/V5 DEST backbone, were constructed that placed the prolabel tag upstream of IKZF1, IKZF2 or GSPT1 and expressed the fusion protein from a CMV promoter.
To ensure moderate and consistent expression of the prolabel fusion proteins across all cells in the population, stable cell lines were constructed from cells expressing a single copy of the construct. Lentivirus packaged with the constructs was made using the Virapower kit from Invitrogen.
The levels of prolabel tagged fusion proteins in compound treated cell lines were measured as follows:
Day 1, Cells were diluted to 1.0×10^6 cells/ml in normal growth medium. 17.5 μL of cells were plated in each well of a solid white 384 well plate. Plates were incubated overnight in a 37° C. tissue culture incubator.
Day 2, Serial dilutions of compounds were made in 384 well plates from 10 mM stocks. 15 μL of DMSO was added to each well of a 384 well plate. In the first column 15 μL of stock compound was added. The solution was mixed and 15 μL was transferred to the next column. This was repeated until 20 two-fold dilutions were prepared. 2.5 μL of diluted compounds were transferred into 60 μL of cell culture medium in another 384 well plate, and mixed well. 2.5 μL of this mixture was added to the plated cells. The final DMSO concentration was 0.5% and the highest concentration of compound was 50 μM. Plates were incubated overnight (e.g., about 14 h, 18 h, or 24 h) in a 37° C. tissue culture incubator.
Day 3, Plates were removed from the incubator and allowed to equilibrate at rt for 30 minutes. Prolabel substrate (DiscoverX PathHunter Prolabel Detection Kit, User manual: 93-0180) was added as described by the manufacturers protocols. Plates were incubated at rt for three hours and luminescence was read using an Envision reader (Perkin Elmer) Data was analyzed and visualized using the Spotfire software package.

[4] = 24 h, 10 μM, 24 h, 293GT cells; read-out: IKZF2 % protein reduction at 10 μM, 24 h
[5] = Prolabel assay, 293GT cells; read-out: IKZF2 EC50

Sequence of IKZF2 (Q9UKS7 whole entry): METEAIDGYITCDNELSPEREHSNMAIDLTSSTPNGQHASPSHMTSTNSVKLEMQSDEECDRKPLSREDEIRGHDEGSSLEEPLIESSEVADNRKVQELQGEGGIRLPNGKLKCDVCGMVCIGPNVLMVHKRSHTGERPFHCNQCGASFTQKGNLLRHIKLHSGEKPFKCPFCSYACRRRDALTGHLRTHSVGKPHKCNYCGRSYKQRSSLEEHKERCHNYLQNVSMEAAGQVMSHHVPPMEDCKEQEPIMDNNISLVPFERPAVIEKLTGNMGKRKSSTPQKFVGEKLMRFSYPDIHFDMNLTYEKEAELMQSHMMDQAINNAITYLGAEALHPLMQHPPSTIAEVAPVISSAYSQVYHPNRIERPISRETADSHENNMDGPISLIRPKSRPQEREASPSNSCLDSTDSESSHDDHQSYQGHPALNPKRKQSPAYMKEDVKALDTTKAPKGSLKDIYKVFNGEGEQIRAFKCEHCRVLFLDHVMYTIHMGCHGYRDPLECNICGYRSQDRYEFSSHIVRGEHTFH
Sequence of IKZF2 (Q96SW2 whole entry): as the sequence (Q96SW2 whole entry) above
Sequence of IKZF2 (Q16531 whole entry partner): as the sequence (Q16531 whole entry partner) above

| Compound | inhibition at 10 µM [1, 4] | DC50 [1, 5] | DC50 [2] | DC50 [3] | IKZF2 protein levels as compared to the control (DMSO) ([1]; Prolabel assay in HEK293GT cells, bar graph) | inhibition at 10 µM ([1]; 10 μM, 24 h, 293GT cells; read-out: IKZF2 % protein reduction at 10 μM, 24 h) |
| --- | --- | --- | --- | --- | --- | --- |
| NC(=O)c1ccc(CN2CCC(c3ccc4c(c3)CN(C3CCC(=O)NC3=O)C4=O)CC2)cc1 (centres unmarked) [Compound I-71, 4-((4-(2-(2,6-dioxopiperidin-3-yl)-1-oxoisoindolin-5-yl)piperidin-1-yl)methyl)benzamide] | 80% | 27 nM | > 30000 nM | > 30000 nM |  |  |
| O=C1CCC(N2Cc3cc(C4CCN(Cc5ccc6c(c5)OCCCO6)CC4)ccc3C2=O)C(=O)N1 (centres unmarked) [Compound I-88, 3-(5-(1-((3,4-dihydro-2H-benzo[b][1,4]dioxepin-7-yl)methyl)piperidin-4-yl)-1-oxoisoindolin-2-yl)piperidine-2,6-dione] | 70% | 5 nM | > 30000 nM | > 30000 nM |  |  |
| O=C1CCC(N2Cc3cc(C4CCN(Cc5ccc(-c6ccccc6)cc5)CC4)ccc3C2=O)C(=O)N1 (centres unmarked) [Compound I-90, 3-(5-(1-([1,1′-biphenyl]-4-ylmethyl)piperidin-4-yl)-1-oxoisoindolin-2-yl)piperidine-2,6-dione] |  | 7 nM | > 50000 nM | > 50000 nM |  | 65% |
| O=C1CCC(N2Cc3cc(C4CCN(Cc5ccc(Cl)cc5)CC4)ccc3C2=O)C(=O)N1 (centres unmarked) [Compound I-97, 3-(5-(1-(4-chlorobenzyl)piperidin-4-yl)-1-oxoisoindolin-2-yl)piperidine-2,6-dione] | 55% | 27 nM | > 50000 nM | > 50000 nM |  |  |
| CC(C)Oc1cccc(CN2CCC(c3ccc4c(c3)CN(C3CCC(=O)NC3=O)C4=O)CC2)c1 (centres unmarked) [Compound I-108, 3-(5-(1-(3-isopropoxybenzyl)piperidin-4-yl)-1-oxoisoindolin-2-yl)piperidine-2,6-dione] | 65% | 23 nM | > 30000 nM | > 30000 nM |  |  |
| O=C1CCC(N2Cc3cc(C4CCN(Cc5ccc(F)cc5)CC4)ccc3C2=O)C(=O)N1 (centres unmarked) [Compound I-112, 3-(5-(1-(4-fluorobenzyl)piperidin-4-yl)-1-oxoisoindolin-2-yl)piperidine-2,6-dione] | 63% | 7 nM | > 50000 nM | > 50000 nM |  |  |
| O=C1CCC(N2Cc3cc(C4CCN(Cc5cn(C6CCC6)nn5)CC4)ccc3C2=O)C(=O)N1 (centres unmarked) [Compound I-134, 3-(5-(1-((1-cyclobutyl-1H-1,2,3-triazol-4-yl)methyl)piperidin-4-yl)-1-oxoisoindolin-2-yl)piperidine-2,6-dione] | 80% | 34 nM | > 30000 nM | > 30000 nM |  |  |
| O=C1CCC(N2Cc3cc(C4CCN(Cc5cc6n(n5)CCCC6)CC4)ccc3C2=O)C(=O)N1 (centres unmarked) [Compound I-135, 3-(1-oxo-5-(1-((4,5,6,7-tetrahydropyrazolo[1,5-a]pyridin-2-yl)methyl)piperidin-4-yl)isoindolin-2-yl)piperidine-2,6-dione] | 60% | 57 nM | > 30000 nM | > 30000 nM |  |  |
| O=C1CCC(N2Cc3cc(C4CCN(Cc5cc6ccccc6[nH]5)CC4)ccc3C2=O)C(=O)N1 (centres unmarked) [Compound I-136, 3-(5-(1-((1H-indo1-2-yl)methyl)piperidin-4-yl)-1-oxoisoindolin-2-yl)piperidine-2,6-dione] | 80% | 12 nM | > 30000 nM | > 30000 nM | decreased |  |
| O=C1CCC(N2Cc3cc(C4CCN(Cc5ccc6cn[nH]c6c5)CC4)ccc3C2=O)C(=O)N1 (centres unmarked) [Compound I-137, 3-(5-(1-((1H-indazol-6-yl)methyl)piperidin-4-yl)-1-oxoisoindolin-2-yl)piperidine-2,6-dione] | 80% | 9 nM | > 30000 nM | > 30000 nM |  |  |

Continued, in another order:

| inhibition at 10 µM [1, 4] | DC50 [1, 5] | DC50 [2] | DC50 [3] | IKZF2 protein levels as compared to the control (DMSO) ([1]; Prolabel assay in HEK293GT cells, bar graph) | Compound | inhibition at 10 µM ([1]; 10 μM, 24 h, 293GT cells; read-out: IKZF2 % protein reduction at 10 μM, 24 h) |
| --- | --- | --- | --- | --- | --- | --- |
| 75% | 12 nM | > 30000 nM | > 30000 nM |  | O=C1CCC(N2Cc3cc(C4CCN(Cc5ccc(C(F)F)cc5)CC4)ccc3C2=O)C(=O)N1 (centres unmarked) [Compound I-70, 3-(5-(1-(4-(difluoromethyl)benzyl)piperidin-4-yl)-1-oxoisoindolin-2-yl)piperidine-2,6-dione] |  |
| 80% | 7 nM | > 30000 nM | > 30000 nM |  | O=C1CCC(N2Cc3cc(C4CCN(Cc5ccc(OC(F)F)cc5)CC4)ccc3C2=O)C(=O)N1 (centres unmarked) [Compound I-77, 3-(5-(1-(4-(difluoromethoxy)benzyl)piperidin-4-yl)-1-oxoisoindolin-2-yl)piperidine-2,6-dione] |  |
| 75% | 29 nM | > 30000 nM | > 30000 nM |  | CC(=O)Nc1ccc(CN2CCC(c3ccc4c(c3)CN(C3CCC(=O)NC3=O)C4=O)CC2)cc1 (centres unmarked) [Compound I-86, N-(4-((4-(2-(2,6-dioxopiperidin-3-yl)-1-oxoisoindolin-5-yl)piperidin-1-yl)methyl)phenyl)acetamide] |  |
| 70% | 33 nM | > 30000 nM | > 30000 nM |  | CCC(C)(C)c1ccc(CN2CCC(c3ccc4c(c3)CN(C3CCC(=O)NC3=O)C4=O)CC2)cc1 (centres unmarked) [Compound I-89, 3-(1-oxo-5-(1-(4-(tert-pentyl)benzyl)piperidin-4-yl)isoindolin-2-yl)piperidine-2,6-dione] |  |
| 75% | 18 nM | > 30000 nM | > 30000 nM |  | O=C1CCC(N2Cc3cc(C4CCN(Cc5ccc(-n6cccn6)cc5)CC4)ccc3C2=O)C(=O)N1 (centres unmarked) [Compound I-91, 3-(5-(1-(4-(1H-pyrazol-1-yl)benzyl)piperidin-4-yl)-1-oxoisoindolin-2-yl)piperidine-2,6-dione] |  |
| 80% | 23 nM | 140 nM | > 30000 nM |  | CC(C)(C)c1cccc(CN2CCC(c3ccc4c(c3)CN(C3CCC(=O)NC3=O)C4=O)CC2)c1 (centres unmarked) [Compound I-107, 3-(5-(1-(3-(tert-butyl)benzyl)piperidin-4-yl)-1-oxoisoindolin-2-yl)piperidine-2,6-dione] |  |
| 75% | 74 nM | > 30000 nM | > 30000 nM |  | O=C1CCC(N2Cc3cc(C4CCN(Cc5ccc(C6CCCC6)cc5)CC4)ccc3C2=O)C(=O)N1 (centres unmarked) [Compound I-110, 3-(5-(1-(4-cyclopentylbenzyl)piperidin-4-yl)-1-oxoisoindolin-2-yl)piperidine-2,6-dione] |  |
| 50% | 15 nM | > 30000 nM | > 30000 nM |  | O=C1CCC(N2Cc3cc(C4CCN(Cc5ccc(Cl)cc5Cl)CC4)ccc3C2=O)C(=O)N1 (centres unmarked) [Compound I-113, 3-(5-(1-(2,4-dichlorobenzyl)piperidin-4-yl)-1-oxoisoindolin-2-yl)piperidine-2,6-dione] |  |
| 55% | 65 nM | > 50000 nM | > 50000 nM |  | O=C1CCC(N2Cc3cc(C4CCN(Cc5cc[nH]n5)CC4)ccc3C2=O)C(=O)N1 (centres unmarked) [Compound I-118, 3-(5-(1-((1H-pyrazol-3-yl)methyl)piperidin-4-yl)-1-oxoisoindolin-2-yl)piperidine-2,6-dione] |  |
| 60% | 240 nM | > 30000 nM | > 30000 nM |  | Cc1nc2sccn2c1CN1CCC(c2ccc3c(c2)CN(C2CCC(=O)NC2=O)C3=O)CC1 (centres unmarked) [Compound I-125, 3-(5-(1-((6-methylimidazo[2,1-b]thiazol-5-yl)methyl)piperidin-4-yl)-1-oxoisoindolin-2-yl)piperidine-2,6-dione] |  |
| 75% | 12 nM | > 30000 nM | > 30000 nM |  | O=C1CCC(N2Cc3cc(C4CCN(Cc5cccn6nccc56)CC4)ccc3C2=O)C(=O)N1 (centres unmarked) [Compound I-128, 3-(1-oxo-5-(1-(pyrazolo[1,5-a]pyridin-4-ylmethyl)piperidin-4-yl)isoindolin-2-yl)piperidine-2,6-dione] |  |
| 80% | 8 nM | > 30000 nM | > 30000 nM |  | O=C1CCC(N2Cc3cc(C4CCN(Cc5ccc6scnc6c5)CC4)ccc3C2=O)C(=O)N1 (centres unmarked) [Compound I-130, 3-(5-(1-(benzo[d]thiazol-5-ylmethyl)piperidin-4-yl)-1-oxoisoindolin-2-yl)piperidine-2,6-dione] |  |
